Laboratory results from ChEMBL document CHEMBL5291721, “A preclinical secondary pharmacology resource illuminates target-adverse drug reaction associations of marketed drugs” (Nat Commun, 2023).

Columns and labels:
[1] = target: T1, Alpha-1A adrenergic receptor (Homo sapiens, UniProt P35348); format: functional, cell-based
T1 sequence (P35348 whole entry): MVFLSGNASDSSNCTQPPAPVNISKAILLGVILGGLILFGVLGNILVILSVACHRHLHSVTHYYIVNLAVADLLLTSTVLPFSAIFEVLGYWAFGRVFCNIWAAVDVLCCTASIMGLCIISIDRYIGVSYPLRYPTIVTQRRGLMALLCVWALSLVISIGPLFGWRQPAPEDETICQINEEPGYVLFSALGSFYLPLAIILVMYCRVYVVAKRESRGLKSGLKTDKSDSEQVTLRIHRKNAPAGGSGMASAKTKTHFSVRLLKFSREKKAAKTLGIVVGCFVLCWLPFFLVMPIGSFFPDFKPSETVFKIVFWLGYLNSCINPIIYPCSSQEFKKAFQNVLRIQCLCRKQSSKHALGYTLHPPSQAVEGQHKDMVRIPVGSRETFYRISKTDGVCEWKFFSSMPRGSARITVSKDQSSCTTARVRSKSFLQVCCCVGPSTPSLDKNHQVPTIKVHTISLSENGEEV

[2] = target: T2, Alpha-2A adrenergic receptor (Homo sapiens, UniProt P08913)
T2 sequence (P08913 whole entry): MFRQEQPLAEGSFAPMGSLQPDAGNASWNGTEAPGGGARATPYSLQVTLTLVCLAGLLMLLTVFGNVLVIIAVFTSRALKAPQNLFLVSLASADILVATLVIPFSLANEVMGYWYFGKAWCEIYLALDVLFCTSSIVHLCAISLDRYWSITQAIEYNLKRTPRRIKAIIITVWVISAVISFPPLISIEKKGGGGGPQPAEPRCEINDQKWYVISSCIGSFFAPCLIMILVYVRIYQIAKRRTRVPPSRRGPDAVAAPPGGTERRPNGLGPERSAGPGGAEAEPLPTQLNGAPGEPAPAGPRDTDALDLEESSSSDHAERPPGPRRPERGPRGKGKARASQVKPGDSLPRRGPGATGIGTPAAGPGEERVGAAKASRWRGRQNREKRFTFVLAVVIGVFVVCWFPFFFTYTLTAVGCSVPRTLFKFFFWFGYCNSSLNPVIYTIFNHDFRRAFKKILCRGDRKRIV

[3] = target: T3, Muscarinic acetylcholine receptor M1 (Homo sapiens, UniProt P11229); format: functional, cell-based
T3 sequence (P11229 whole entry): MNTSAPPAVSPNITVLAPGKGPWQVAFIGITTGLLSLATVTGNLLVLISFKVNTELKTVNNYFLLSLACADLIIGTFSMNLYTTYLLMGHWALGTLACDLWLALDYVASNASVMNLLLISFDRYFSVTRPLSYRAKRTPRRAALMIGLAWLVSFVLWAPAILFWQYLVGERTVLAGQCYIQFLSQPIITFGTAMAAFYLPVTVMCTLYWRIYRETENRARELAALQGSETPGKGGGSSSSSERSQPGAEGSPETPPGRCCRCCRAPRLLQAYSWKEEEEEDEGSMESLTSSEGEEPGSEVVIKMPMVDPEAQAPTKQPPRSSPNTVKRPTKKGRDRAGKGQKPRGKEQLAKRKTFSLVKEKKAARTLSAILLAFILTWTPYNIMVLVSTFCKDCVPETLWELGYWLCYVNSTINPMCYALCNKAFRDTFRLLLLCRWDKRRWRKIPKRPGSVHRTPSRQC

[4] = target: T3, Muscarinic acetylcholine receptor M1; format: functional, cell-based; remark: listed apart in the source
D(1A) dopamine receptor = D(1A) dopamine receptor (Homo sapiens, UniProt P21728)
D(1A) dopamine receptor, sequence (P21728 whole entry): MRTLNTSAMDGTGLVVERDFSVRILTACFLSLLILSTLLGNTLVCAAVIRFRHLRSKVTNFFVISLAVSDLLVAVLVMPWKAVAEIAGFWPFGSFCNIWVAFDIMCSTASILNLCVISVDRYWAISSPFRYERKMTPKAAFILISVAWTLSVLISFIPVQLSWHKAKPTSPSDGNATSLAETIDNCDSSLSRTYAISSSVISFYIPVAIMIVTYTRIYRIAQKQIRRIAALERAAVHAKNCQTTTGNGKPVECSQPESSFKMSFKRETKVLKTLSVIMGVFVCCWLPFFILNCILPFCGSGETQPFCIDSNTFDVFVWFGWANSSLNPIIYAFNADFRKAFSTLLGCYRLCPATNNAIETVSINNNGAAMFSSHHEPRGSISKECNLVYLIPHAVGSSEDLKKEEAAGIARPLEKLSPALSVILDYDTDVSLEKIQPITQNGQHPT

Prothrombin = Prothrombin (Homo sapiens, UniProt P00734); format: functional
[5] = target: T4, 5-hydroxytryptamine receptor 1A (Homo sapiens, UniProt P08908)
T4 sequence (P08908 whole entry): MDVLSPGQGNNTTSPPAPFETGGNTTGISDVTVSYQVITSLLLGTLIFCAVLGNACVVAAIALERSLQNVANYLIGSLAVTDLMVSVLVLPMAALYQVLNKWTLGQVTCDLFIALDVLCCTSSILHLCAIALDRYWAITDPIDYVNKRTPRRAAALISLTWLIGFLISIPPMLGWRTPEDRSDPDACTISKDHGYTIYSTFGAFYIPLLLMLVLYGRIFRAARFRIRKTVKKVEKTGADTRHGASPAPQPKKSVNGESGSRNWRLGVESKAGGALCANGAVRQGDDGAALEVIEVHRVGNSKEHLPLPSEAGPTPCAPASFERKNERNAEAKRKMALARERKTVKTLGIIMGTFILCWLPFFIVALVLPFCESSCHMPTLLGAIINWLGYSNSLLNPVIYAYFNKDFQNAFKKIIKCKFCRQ

[6] = target: T5, Amine oxidase [flavin-containing] A (Homo sapiens, UniProt P21397); format: functional
T5 sequence (P21397 whole entry): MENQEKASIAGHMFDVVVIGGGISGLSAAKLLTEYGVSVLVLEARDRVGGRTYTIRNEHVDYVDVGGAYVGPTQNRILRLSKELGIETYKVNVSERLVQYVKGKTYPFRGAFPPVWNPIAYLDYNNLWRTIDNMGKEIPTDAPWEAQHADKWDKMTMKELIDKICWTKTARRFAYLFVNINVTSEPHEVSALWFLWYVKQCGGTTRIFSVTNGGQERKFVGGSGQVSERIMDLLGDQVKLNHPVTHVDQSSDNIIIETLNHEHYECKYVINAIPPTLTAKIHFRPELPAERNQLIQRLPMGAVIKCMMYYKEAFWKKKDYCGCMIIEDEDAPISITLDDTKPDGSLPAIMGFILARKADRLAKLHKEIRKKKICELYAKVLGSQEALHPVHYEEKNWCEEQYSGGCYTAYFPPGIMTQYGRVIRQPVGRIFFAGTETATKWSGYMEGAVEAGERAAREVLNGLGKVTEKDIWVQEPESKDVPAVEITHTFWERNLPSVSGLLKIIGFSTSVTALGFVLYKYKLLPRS

[7] = target: Sodium-dependent serotonin transporter (Homo sapiens, UniProt P31645)
Sodium-dependent serotonin transporter, sequence (P31645 whole entry): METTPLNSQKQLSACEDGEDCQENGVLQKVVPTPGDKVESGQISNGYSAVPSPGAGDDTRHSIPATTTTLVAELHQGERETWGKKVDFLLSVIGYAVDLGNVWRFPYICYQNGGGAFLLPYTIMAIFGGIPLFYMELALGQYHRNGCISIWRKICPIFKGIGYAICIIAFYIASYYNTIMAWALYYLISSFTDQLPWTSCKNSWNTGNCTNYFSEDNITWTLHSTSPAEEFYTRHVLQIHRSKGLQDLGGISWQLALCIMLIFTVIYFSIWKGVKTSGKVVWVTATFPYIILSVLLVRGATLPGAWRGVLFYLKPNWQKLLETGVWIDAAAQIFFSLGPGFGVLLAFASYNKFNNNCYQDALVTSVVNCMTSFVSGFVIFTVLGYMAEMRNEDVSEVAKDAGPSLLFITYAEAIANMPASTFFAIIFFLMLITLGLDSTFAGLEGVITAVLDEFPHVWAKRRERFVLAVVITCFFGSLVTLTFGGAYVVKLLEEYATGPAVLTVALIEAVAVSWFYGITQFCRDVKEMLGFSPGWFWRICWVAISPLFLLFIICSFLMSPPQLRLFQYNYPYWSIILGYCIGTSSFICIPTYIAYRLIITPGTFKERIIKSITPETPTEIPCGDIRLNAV

Thromboxane A2 receptor = target: T6, Thromboxane A2 receptor (Homo sapiens, UniProt P21731); format: functional, cell-based
T6 sequence (P21731 whole entry): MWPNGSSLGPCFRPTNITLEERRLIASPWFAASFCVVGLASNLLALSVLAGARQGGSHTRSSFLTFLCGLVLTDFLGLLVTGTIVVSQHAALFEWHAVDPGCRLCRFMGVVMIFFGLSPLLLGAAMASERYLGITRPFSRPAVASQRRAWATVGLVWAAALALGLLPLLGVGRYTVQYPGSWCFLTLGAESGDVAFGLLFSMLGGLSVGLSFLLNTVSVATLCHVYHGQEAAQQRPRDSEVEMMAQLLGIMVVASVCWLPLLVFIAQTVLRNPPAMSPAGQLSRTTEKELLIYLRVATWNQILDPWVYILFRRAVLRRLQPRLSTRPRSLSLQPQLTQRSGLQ
Note: assay procedure not described here.

Row | Structure (SMILES) | AC50 [1] [µM] | AC50 [2] [µM] | AC50 [3] [µM] | AC50 [4] [µM] | AC50 (D(1A) dopamine receptor) [µM] | AC50 (Prothrombin) [µM] | AC50 [5] [µM] | AC50 [6] [µM] | AC50 [7] [µM] | AC50 (Thromboxane A2 receptor) [µM]
1 | O=C(Oc1ccc2c(c1)CCCN2C(=O)C(Cl)Cl)c1ccco1 [QUINFAMIDE] | 24.6 | > 30 | > 30 | 15.4 | > 30 | > 30 | > 30 | > 30 | > 30 | > 30
2 | CC[C@H]1CN2CC[C@H]1C[C@H]2[C@H](O)c1ccnc2ccc(OC)cc12 [HYDROQUININE] | > 30 | 3.59 | > 30 | > 30 | > 30 | > 30 | > 30 | > 30 | 3.95 | > 30
3 | N=C1CCCN1Cc1[nH]c(=O)[nH]c(=O)c1Cl | > 30 | > 30 | > 30 | > 30 | > 30 | > 30 | > 30 | > 30 | > 30 | > 30
4 | CC(C)(C)C(=O)OCOC(=O)[C@@H]1N2C(=O)[C@@H](NC(=O)[C@H](N)c3ccccc3)[C@H]2SC1(C)C [PIVAMPICILLIN] | > 30 | > 30 | > 30 | 23 | > 30 | > 30 | > 30 | > 30 | > 30 | > 30
5 | COc1ccc(C(=O)Nc2ccccc2CCC2CCCCN2C)cc1 (stereo unspecified) [ENCAINIDE] | > 30 | > 30 | > 30 | > 30 | 26.9 | > 30 | > 30 | > 30 | > 30 | > 30
6 | Cc1cc(OP(=O)(O)O)c2ccccc2c1OP(=O)(O)O [MENADIOL SODIUM DIPHOSPHATE] | > 30 | > 30 | > 30 | > 30 | > 30 | > 30 | > 30 | > 30 | > 30 | > 30
7 | CCCCS(=O)(=O)N[C@@H](Cc1ccc(OCCCCC2CCNCC2)cc1)C(=O)O [TIROFIBAN] | > 10 | > 30 | > 30 | > 10 | > 30 | > 30 | > 30 | > 30 | 9.96 | > 30
8 | NC1CCN(c2c(F)cc3c(=O)c(C(=O)O)cn(C4CC4)c3c2Cl)C1 (stereo unspecified) [CLINAFLOXACIN] | > 30 | > 30 | > 30 | > 30 | > 30 | > 30 | > 30 | > 30 | > 30 | > 30
9 | CCN(CC)CCc1nc(-c2ccccc2)no1 [OXOLAMINE] | > 30 | > 30 | > 30 | > 30 | > 30 | > 30 | 15.5 | > 30 | > 30 | > 30
10 | CC(C)(C)CC(C)(C)c1ccc(O)c(Cc2ccc(Cl)cc2Cl)c1 [CLOFOCTOL] | > 30 | > 30 | > 30 | > 10 | 29.7 | > 30 | > 30 | > 30 | 5.43 | > 30
11 | CCC(C)(C)c1ccc(CC(C)CN2C[C@@H](C)O[C@@H](C)C2)cc1 (stereo partly specified) [AMOROLFINE] | > 30 | > 30 | > 30 | 10.8 | > 30 | > 30 | > 30 | > 30 | > 30 | > 30
12 | CCOC(=O)/C=C1\SC(N2CCCCC2)C(=O)N1C (stereo unspecified) [ETOZOLIN] | > 30 | > 30 | > 30 | > 30 | > 30 | > 30 | > 30 | > 30 | > 30 | > 30
13 | Nc1ccncc1N [AMIFAMPRIDINE] | > 30 | > 30 | > 30 | > 30 | > 30 | > 30 | > 30 | > 30 | > 30 | > 30
14 | C=CCN1C[C@H](C(=O)N(CCCN(C)C)C(=O)NCC)C[C@@H]2c3cccc4[nH]cc(c34)C[C@H]21 [CABERGOLINE] | – | – | > 30 | > 30 | 0.648 | > 30 | 0.0083 | > 30 | > 30 | > 30
15 | CC(C)C[C@H]1C(=O)N2CCC[C@H]2[C@]2(O)O[C@](NC(=O)[C@@H]3C[C@@H]4c5cccc6[nH]cc(c56)C[C@H]4N(C)C3)(C(C)C)C(=O)N12 [DIHYDROERGOCRYPTINE] | – | 0.847 | > 30 | > 30 | 0.597 | > 30 | 0.0125 | > 30 | > 30 | > 30
16 | CCCNC(C)C(=O)Nc1c(C)csc1C(=O)OC (stereo unspecified) [ARTICAINE] | > 30 | > 30 | > 30 | > 30 | > 30 | > 30 | – | > 30 | > 30 | > 30
